ChEMBL document CHEMBL5653615 (J Biol Chem, 2013)

Key:
[1] = target: Serine/threonine-protein kinase Nek7 (Homo sapiens) (UniProt Q8TDX7); experiment: Inhibition of human NEK7 at 500 nM by HotSpot assay relative to control
[2] = target: Activin receptor type-1-like (Homo sapiens) (UniProt P37023); experiment: Inhibition of human ALK1 at 500 nM by HotSpot assay relative to control
[3] = target: RAC-gamma serine/threonine-protein kinase (Homo sapiens) (UniProt Q9Y243); experiment: Inhibition of human AKT3 at 500 nM by HotSpot assay relative to control
[4] = target: T1, Testis-specific serine/threonine-protein kinase 1 (Homo sapiens) (UniProt Q9BXA7); experiment: Inhibition of human TSSK1 at 500 nM by HotSpot assay relative to control
T1 sequence (whole entry): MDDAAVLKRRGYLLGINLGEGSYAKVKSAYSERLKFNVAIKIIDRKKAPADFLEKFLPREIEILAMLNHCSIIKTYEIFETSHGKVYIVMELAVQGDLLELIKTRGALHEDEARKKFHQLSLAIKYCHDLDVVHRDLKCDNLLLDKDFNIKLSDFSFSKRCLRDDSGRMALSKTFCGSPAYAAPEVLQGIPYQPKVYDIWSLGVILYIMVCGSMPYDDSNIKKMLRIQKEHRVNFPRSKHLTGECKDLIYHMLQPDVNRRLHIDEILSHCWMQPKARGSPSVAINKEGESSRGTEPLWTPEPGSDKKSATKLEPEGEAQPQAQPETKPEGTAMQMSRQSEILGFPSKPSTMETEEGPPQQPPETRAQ

[5] = target: Ribosomal protein S6 kinase alpha-3 (Homo sapiens) (UniProt P51812); experiment: Inhibition of human RSK2 at 500 nM by HotSpot assay relative to control
[6] = target: T2, cGMP-dependent protein kinase 1 (Homo sapiens) (UniProt Q13976); experiment: Inhibition of human PKG1a at 500 nM by HotSpot assay relative to control
T2 sequence (whole entry): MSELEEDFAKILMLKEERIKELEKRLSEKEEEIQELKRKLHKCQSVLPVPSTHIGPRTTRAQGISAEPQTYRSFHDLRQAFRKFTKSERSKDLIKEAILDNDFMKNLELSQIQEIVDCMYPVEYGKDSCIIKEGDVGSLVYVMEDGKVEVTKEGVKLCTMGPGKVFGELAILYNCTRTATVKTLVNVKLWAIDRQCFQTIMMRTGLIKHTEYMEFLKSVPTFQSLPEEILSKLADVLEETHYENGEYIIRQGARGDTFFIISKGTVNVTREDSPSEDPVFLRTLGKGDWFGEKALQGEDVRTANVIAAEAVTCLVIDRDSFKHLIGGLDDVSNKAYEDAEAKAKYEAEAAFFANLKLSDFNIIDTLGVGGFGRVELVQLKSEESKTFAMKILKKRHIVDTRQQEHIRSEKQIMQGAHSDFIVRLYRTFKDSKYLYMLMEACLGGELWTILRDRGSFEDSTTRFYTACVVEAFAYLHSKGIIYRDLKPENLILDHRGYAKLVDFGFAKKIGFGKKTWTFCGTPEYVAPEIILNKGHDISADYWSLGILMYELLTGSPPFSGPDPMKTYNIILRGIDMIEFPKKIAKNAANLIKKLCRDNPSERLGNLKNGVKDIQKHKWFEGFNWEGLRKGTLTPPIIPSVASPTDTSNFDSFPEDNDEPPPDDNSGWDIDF

[7] = target: Ephrin type-A receptor 4 (Homo sapiens) (UniProt P54764); experiment: Inhibition of human EPHA4 at 500 nM by HotSpot assay relative to control
[8] = target: Fibroblast growth factor receptor 3 (Homo sapiens) (UniProt P22607); experiment: Inhibition of human FGFR3 at 500 nM by HotSpot assay relative to control
[9] = target: Serine/threonine-protein kinase PAK 6 (Homo sapiens) (UniProt Q9NQU5); experiment: Inhibition of human PAK6 at 500 nM by HotSpot assay relative to control
[10] = target: Mast/stem cell growth factor receptor Kit (Homo sapiens) (UniProt P10721); experiment: Inhibition of human c-Kit at 500 nM by HotSpot assay relative to control
[11] = target: High affinity nerve growth factor receptor (Homo sapiens) (UniProt P04629); experiment: Inhibition of human TRKA at 500 nM by HotSpot assay relative to control
[12] = target: Serine/threonine-protein kinase 25 (Homo sapiens) (UniProt O00506); experiment: Inhibition of human YSK1 at 500 nM by HotSpot assay relative to control
[13] = target: Mitogen-activated protein kinase 1 (Homo sapiens) (UniProt P28482); conditions: dose 500.0 nM
Description: Inhibition of human ERK2 at 500 nM by HotSpot assay relative to control

[14] = target: Serine/threonine-protein kinase PAK 3 (Homo sapiens) (UniProt O75914); experiment: Inhibition of human PAK3 at 500 nM by HotSpot assay relative to control
[15] = target: T3, Serine/threonine-protein kinase TAO1 (Homo sapiens) (UniProt Q7L7X3); experiment: Inhibition of human TAOK1 at 500 nM by HotSpot assay relative to control
T3 sequence (whole entry): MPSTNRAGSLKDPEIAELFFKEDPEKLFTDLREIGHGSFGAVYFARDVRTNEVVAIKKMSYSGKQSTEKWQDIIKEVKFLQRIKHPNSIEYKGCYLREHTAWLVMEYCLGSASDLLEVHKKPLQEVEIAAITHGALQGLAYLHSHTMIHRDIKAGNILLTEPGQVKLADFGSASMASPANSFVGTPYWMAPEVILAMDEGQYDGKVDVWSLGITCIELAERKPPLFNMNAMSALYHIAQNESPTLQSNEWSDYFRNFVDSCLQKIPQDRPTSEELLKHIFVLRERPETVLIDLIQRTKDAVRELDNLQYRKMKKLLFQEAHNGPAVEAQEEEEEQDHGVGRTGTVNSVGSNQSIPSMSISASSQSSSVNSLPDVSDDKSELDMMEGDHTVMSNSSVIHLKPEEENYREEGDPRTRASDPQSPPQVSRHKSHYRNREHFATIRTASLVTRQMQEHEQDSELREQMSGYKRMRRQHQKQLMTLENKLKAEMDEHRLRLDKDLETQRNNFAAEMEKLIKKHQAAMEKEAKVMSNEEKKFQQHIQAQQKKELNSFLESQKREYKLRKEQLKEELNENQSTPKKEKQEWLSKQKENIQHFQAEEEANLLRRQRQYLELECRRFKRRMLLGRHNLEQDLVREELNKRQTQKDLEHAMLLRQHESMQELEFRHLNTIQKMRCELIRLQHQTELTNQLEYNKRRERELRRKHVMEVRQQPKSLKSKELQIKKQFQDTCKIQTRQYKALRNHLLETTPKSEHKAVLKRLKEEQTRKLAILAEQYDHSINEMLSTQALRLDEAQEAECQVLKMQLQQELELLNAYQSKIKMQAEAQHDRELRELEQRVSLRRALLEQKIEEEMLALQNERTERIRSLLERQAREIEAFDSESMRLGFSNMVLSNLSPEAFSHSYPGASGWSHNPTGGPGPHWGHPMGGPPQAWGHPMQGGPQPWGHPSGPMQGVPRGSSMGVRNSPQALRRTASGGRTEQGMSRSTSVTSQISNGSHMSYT

Chain of Mitogen-activated protein kinase 1 (Homo sapiens) (P28482 whole entry): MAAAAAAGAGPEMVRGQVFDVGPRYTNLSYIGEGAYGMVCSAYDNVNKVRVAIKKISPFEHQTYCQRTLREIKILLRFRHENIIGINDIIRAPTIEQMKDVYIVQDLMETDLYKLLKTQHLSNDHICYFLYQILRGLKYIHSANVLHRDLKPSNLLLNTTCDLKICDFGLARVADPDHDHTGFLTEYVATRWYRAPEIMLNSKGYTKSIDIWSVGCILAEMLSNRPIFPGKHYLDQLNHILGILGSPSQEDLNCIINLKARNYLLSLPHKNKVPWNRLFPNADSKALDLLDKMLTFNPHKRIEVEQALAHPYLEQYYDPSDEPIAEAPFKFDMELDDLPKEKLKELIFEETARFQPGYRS
Chain of Activin receptor type-1-like (Homo sapiens) (P37023 whole entry): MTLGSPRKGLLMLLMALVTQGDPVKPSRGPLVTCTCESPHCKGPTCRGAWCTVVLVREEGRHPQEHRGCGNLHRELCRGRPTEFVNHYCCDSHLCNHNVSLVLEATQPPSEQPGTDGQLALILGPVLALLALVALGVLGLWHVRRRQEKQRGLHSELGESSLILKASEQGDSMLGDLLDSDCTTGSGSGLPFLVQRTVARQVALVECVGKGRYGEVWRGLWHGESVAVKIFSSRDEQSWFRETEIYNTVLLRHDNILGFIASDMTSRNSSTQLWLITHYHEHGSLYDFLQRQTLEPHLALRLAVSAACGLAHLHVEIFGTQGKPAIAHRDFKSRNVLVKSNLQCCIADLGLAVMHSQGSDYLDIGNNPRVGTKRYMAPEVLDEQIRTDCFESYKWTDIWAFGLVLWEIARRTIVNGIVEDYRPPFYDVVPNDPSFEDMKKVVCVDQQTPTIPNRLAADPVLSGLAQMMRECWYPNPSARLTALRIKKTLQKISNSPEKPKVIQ
Chain of Serine/threonine-protein kinase PAK 3 (Homo sapiens) (O75914 whole entry, looked up): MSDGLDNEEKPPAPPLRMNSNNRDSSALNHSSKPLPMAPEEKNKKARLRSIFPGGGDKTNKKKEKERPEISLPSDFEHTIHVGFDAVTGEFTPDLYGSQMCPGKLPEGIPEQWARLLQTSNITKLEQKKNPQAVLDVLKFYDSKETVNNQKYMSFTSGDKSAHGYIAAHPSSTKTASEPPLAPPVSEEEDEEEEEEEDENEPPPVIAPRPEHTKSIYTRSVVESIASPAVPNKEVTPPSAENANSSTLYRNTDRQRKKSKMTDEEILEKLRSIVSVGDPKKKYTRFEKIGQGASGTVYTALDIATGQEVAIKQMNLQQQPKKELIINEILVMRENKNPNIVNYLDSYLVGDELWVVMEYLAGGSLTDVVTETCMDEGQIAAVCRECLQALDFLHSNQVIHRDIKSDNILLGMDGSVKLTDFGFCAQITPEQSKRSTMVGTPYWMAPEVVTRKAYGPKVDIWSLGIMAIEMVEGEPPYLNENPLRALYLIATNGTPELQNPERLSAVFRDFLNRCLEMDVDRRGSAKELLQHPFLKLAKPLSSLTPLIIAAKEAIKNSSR
Chain of Serine/threonine-protein kinase Nek7 (Homo sapiens) (Q8TDX7 whole entry, looked up): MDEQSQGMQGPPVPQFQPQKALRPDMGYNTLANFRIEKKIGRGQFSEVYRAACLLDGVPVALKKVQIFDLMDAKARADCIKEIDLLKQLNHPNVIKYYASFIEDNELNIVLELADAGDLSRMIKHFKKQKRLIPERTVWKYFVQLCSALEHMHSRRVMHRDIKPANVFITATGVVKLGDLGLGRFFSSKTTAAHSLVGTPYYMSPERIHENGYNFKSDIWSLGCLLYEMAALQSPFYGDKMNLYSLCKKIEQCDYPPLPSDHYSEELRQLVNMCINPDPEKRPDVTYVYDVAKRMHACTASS
Chain of Serine/threonine-protein kinase PAK 6 (Homo sapiens) (Q9NQU5 whole entry, looked up): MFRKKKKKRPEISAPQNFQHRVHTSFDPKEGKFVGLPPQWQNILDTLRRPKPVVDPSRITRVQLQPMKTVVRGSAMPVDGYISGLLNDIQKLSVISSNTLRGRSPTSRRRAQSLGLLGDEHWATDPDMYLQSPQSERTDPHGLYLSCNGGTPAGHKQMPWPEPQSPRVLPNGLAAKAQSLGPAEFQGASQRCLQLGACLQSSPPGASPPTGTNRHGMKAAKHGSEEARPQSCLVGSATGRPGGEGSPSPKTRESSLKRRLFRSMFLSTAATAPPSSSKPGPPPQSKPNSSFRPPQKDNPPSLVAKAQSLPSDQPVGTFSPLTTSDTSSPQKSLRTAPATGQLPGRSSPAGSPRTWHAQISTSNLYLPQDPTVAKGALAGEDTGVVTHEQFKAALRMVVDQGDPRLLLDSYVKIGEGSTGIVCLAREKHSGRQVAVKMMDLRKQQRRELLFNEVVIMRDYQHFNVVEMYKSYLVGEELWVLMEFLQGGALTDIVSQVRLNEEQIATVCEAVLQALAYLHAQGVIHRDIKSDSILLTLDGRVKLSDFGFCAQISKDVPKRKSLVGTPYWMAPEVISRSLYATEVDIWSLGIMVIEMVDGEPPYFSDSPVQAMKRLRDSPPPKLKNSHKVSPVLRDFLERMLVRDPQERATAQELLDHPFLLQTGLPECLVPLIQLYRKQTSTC
Chain of Ephrin type-A receptor 4 (Homo sapiens) (P54764 whole entry): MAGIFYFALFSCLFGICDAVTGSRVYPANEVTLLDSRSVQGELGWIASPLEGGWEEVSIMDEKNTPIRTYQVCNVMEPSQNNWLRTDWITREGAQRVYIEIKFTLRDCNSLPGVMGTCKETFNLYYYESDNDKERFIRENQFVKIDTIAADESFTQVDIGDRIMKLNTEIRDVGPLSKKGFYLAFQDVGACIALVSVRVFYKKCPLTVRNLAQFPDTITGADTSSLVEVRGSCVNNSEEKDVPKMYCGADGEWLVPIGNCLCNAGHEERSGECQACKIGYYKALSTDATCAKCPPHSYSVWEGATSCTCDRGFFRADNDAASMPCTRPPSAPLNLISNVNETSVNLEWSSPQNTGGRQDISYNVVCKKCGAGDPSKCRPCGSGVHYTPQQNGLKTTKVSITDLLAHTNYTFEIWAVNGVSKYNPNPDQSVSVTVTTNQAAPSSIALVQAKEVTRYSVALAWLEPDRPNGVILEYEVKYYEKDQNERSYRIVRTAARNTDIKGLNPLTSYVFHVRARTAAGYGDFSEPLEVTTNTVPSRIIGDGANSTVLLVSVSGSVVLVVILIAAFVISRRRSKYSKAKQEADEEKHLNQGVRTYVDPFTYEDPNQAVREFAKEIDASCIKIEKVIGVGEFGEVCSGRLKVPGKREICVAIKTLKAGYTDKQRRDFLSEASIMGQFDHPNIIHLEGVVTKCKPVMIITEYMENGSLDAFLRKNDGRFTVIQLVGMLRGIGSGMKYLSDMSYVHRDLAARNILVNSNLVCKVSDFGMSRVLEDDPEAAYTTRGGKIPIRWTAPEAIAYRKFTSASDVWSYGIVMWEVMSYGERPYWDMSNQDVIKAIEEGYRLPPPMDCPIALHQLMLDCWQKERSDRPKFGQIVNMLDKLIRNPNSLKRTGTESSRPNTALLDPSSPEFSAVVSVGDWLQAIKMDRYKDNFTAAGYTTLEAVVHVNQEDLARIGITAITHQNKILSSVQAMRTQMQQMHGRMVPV
Chain of RAC-gamma serine/threonine-protein kinase (Homo sapiens) (Q9Y243 whole entry): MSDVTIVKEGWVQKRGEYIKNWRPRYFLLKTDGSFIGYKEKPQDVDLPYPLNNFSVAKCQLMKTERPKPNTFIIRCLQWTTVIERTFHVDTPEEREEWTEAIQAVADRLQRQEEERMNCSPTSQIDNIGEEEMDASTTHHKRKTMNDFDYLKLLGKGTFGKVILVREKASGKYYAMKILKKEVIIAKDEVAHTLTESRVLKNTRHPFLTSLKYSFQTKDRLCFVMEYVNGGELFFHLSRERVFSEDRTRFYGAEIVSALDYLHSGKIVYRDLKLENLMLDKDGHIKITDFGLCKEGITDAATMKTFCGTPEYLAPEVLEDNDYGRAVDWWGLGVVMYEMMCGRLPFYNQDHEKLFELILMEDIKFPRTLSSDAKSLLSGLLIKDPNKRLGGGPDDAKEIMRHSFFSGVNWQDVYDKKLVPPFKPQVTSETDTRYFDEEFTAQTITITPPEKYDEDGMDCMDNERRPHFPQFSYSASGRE
Chain of High affinity nerve growth factor receptor (Homo sapiens) (P04629 33-796 limits assumed): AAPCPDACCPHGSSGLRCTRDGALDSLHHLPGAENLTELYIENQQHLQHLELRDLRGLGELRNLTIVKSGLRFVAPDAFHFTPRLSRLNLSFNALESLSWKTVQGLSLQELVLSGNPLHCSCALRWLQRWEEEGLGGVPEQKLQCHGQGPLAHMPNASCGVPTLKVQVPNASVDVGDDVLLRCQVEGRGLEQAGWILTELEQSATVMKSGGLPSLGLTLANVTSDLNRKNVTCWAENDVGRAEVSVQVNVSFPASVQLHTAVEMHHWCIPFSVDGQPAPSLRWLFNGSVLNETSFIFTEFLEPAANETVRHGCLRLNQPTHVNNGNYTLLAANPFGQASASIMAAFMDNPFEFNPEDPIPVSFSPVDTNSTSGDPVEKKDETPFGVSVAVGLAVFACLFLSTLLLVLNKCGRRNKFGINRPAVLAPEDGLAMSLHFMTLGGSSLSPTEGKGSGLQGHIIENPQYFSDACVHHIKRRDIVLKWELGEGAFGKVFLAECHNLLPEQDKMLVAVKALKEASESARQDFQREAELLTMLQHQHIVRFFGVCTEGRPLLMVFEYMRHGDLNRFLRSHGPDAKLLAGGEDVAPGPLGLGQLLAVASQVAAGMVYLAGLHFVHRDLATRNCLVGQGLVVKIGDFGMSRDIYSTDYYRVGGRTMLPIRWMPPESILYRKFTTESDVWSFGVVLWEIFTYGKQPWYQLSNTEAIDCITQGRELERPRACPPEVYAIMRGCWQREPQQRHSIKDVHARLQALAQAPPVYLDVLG

Compound	inhibition [1] [%]	inhibition [2] [%]	inhibition [3] [%]	inhibition [4] [%]	inhibition [5] [%]	inhibition [6] [%]	inhibition [7] [%]	inhibition [8] [%]	inhibition [9] [%]	inhibition [10] [%]	inhibition [11] [%]	inhibition [12] [%]	inhibition [13] [%]	inhibition [14] [%]	inhibition [15] [%]
Nc1n[nH]c2nnc(-c3c(-c4ccccc4)nn4ccccc34)cc12	4.72	-6.11	2.52	-1.56	1.29	6.39	14.1	-1.72	3.58	2.89	-1.03	15.8	12.8	-0.04	4.2
Oc1n[nH]c2nnc(-c3c(-c4ccccc4)nn4ccccc34)cc12	3.15	-0.63	2.1	-0.04	-2.36	-5.37	-8.13	-3.4	1.63	0.91	4.28	4.81	-0.62	0.99	1.61
